The values below come from ChEMBL document CHEMBL1134744, “Discovery and parallel synthesis of a new class of cathepsin K inhibitors” (Bioorg Med Chem Lett, 2001).

Structures are written as SMILES. Bounds are passed on as bounds.

One assay concerns the target T1, Cathepsin K (Homo sapiens, UniProt P43235).
T1 sequence (P43235 whole entry): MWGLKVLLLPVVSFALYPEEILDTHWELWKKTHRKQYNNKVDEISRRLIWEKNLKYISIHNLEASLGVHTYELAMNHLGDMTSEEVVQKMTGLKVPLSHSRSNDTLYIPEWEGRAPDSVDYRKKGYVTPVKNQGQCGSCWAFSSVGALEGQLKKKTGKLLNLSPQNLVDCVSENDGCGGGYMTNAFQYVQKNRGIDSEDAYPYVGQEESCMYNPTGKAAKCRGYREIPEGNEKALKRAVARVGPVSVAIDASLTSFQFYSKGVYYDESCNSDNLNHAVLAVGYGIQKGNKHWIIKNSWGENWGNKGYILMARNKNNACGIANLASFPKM
The experiment in a line: Inhibitory activity against Cathepsin K.
Conditions: not given
On to `CC(C)[C@@H](/C=C/c1ccccc1)NC(=O)[C@@H]1CCCCN1CC(=O)c1ccccc1`, for which the IC50 is 780 nM.

`CC(C)C[C@H](NC(=O)OCc1ccccc1)C(=O)NC1CN(C(=O)[C@H](CC(C)C)NC(=O)OCc2ccccc2)CC1=O` (stereo not given in full) yielded a Ki of 2 nM.

In another assay the target is T1, Cathepsin K. The experiment in a line: (§1) Inhibitory activity against cathepsin K.
Conditions: not given
`COc1cc(C(=O)CN2CCCC[C@H]2C(=O)N[C@H](/C=C/c2ccccc2)CC(C)C)cc(OC)c1OC` showed an IC50 of 1500 nM. Molecule `CC[C@H](C)[C@@H](/C=C/c1ccccc1)NC(=O)[C@@H]1CCCCN1CC(=O)c1ccc(Cl)cc1` registered a half-inhibitory concentration (IC50) of 280 nM.

`CC[C@H](C)[C@@H](/C=C/c1ccc(Cl)cc1)NC(=O)[C@@H]1CCCCN1CC(=O)c1ccccc1`: it took 1400 nM to reach half-maximal inhibition (IC50). Same read-out and setting: in the case of `CC[C@H](C)[C@@H](/C=C/c1ccccc1)NC(=O)[C@@H]1CCCCN1CC(=O)c1ccccc1` it was 230 nM; in that of `CC[C@H](C)[C@@H](/C=C/c1ccccc1)NC(=O)[C@@H]1CCCCN1CC(=O)c1ccc2c(c1)OCO2`, 590 nM. As to `CC[C@H](C)[C@@H](/C=C/c1ccccc1)NC(=O)[C@@H]1CCCCN1CC(=O)c1c(OC)cccc1OC`, the IC50 stood at 700 nM. Molecule `CC[C@H](C)[C@@H](/C=C/c1ccccc1)NC(=O)[C@@H]1CCCCN1CC(=O)c1ccc(OC)cc1` returned a 50% inhibitory concentration (IC50) of 410 nM. `CC[C@H](C)[C@@H](/C=C/c1ccc(C)cc1)NC(=O)[C@@H]1CCCCN1CC(=O)c1ccccc1` showed an IC50 of 740 nM. Take `CC(C)C[C@@H](/C=C/c1ccccc1)NC(=O)[C@@H]1CCCCN1CC(=O)c1ccccc1`: the IC50 was found to be 840 nM. Still for that read-out and setting: the result for `CC[C@H](C)[C@@H](/C=C/c1ccccc1C)NC(=O)[C@@H]1CCCCN1CC(=O)c1ccccc1` reads 590 nM.

Regarding `CC[C@H](C)[C@@H](/C=C/c1ccccc1)NC(=O)[C@@H]1CCCCN1CC(=O)c1cc(OC)c(OC)c(OC)c1`, the midpoint of inhibition, the IC50, lay at 1200 nM and the Ki is 790 nM.

The next assay has as its target T2, Cathepsin K (Homo sapiens) (UniProt P43235).
T2 sequence (whole entry): T1 sequence (P43235 whole entry)
The assay is described as §1. Also on record: concentration or dose not given beside the values. Conditions: concentration not given here.
`CC[C@H](C)[C@@H](/C=C/c1ccccn1)NC(=O)[C@@H]1CCCCN1CC(=O)c1ccccc1`: the inhibition is 26%. The same measure, in the same setting: the result for `CC[C@H](C)[C@@H](/C=C/c1ccccc1)NC(=O)[C@@H]1CCCN1CC(=O)c1ccccc1` reads 15%; that for `CC[C@H](C)[C@@H](/C=C/c1ccccc1)NC(=O)[C@@H]1CCCCN1CC(=O)c1ccc(NC(C)=O)cc1`, 42%. Regarding `CC[C@H](C)[C@@H](/C=C/c1ccncc1)NC(=O)[C@@H]1CCCCN1CC(=O)c1ccccc1`, the inhibition came to 8%. The same measure, in the same setting: the result for `CC[C@H](C)[C@@H](/C=C/c1ccccc1)NC(=O)[C@@H]1Cc2ccccc2CN1CC(=O)c1ccccc1` reads 29%; that for `O=C(CN1CCCC[C@H]1C(=O)Nc1ccc2oc3ccccc3c2c1)c1ccccc1`, less than 1%; that for `CC[C@H](C)[C@@H](/C=C/c1ccccc1)NC(=O)[C@@H]1CCCCN1CC(=O)c1ccc(C#N)cc1`, 16%. Same read-out and setting: the result for `CC[C@H](C)[C@@H](/C=C/c1ccccc1)NC(=O)[C@@H]1CCCCN1CC(=O)c1cccc([N+](=O)[O-])c1` reads 11%; that for `CC[C@H](C)[C@@H](/C=C/c1ccccc1)NC(=O)[C@@H]1C=CCN1CC(=O)c1ccccc1`, 43%. Same read-out and setting: the result for `CC[C@H](C)[C@H](NC(=O)[C@@H]1CCCCN1CC(=O)c1ccccc1)C(=O)Nc1ccccc1` reads 8%. Take `CC[C@H](C)[C@@H](/C=C/c1ccccc1)NC(=O)[C@@H]1CCCCN1CC(O)c1cc(OC)c(OC)c(OC)c1` (stereo not given in full): the inhibition turned out to be 8%. Molecule `CC[C@H](C)[C@@H](/C=C/c1ccccc1)NC(=O)[C@@H]1CCCCN1CC(=O)c1ccc([N+](=O)[O-])cc1` showed an inhibition of 28%. On the same count and under the same terms, the result for `O=C(CN1CCCC[C@H]1C(=O)Nc1cccc(-c2ccccc2)c1)c1ccccc1` reads 2%; that for `CCC(=O)CN1CCCC[C@H]1C(=O)N[C@H](/C=C/c1ccccc1)[C@@H](C)CC`, 22%; that for `COc1cc(C(=O)CN2CCCC[C@H]2C(=O)N[C@H](/C=C/c2ccccc2)Cc2ccccc2)cc(OC)c1OC`, 20%.

Turning to `CC[C@H](C)[C@@H](/C=C/c1ccccc1)NC(=O)[C@@H]1CCCCN1CC(C)=O`, the inhibition stood at 3%.
